Experimental data reported in the NIST ThermoML archive (doi:10.1021/je200128y).
“And” between values parts separate entries of the source, which are not always exact repeats. Identical values can stand only once. Numbers after ± are expanded uncertainties.

Conditions: Transpiration method

Compound: c1ccc(Nc2ccccc2)cc1 [diphenylamine]
- vapor or sublimation pressure (293.1 K, Crystal): 4e-05 ± 1e-05 kPa
- vapor or sublimation pressure (293.7 K, Crystal): 4e-05 ± 1e-05 kPa
- vapor or sublimation pressure (296.2 K, Crystal): 6e-05 ± 1e-05 kPa
- vapor or sublimation pressure (298.2 K, Crystal): 7e-05 ± 1e-05 kPa
- vapor or sublimation pressure (298.4 K, Crystal): 8e-05 ± 1e-05 kPa
- vapor or sublimation pressure (300.2 K, Crystal): 0.0001 ± 1e-05 kPa
- vapor or sublimation pressure (301 K, Crystal): 0.00012 ± 1e-05 kPa
- vapor or sublimation pressure (302.1 K, Crystal): 0.00013 ± 1e-05 kPa
- vapor or sublimation pressure (302.7 K, Crystal): 0.00015 ± 1e-05 kPa
- vapor or sublimation pressure (303.2 K, Crystal): 0.00014 ± 1e-05 kPa
- vapor or sublimation pressure (305.2 K, Crystal): 0.00017 ± 2e-05 kPa
- vapor or sublimation pressure (305.5 K, Crystal): 0.0002 ± 2e-05 kPa
- vapor or sublimation pressure (308 K, Crystal): 0.00024 ± 2e-05 kPa and 0.00025 ± 2e-05 kPa
- vapor or sublimation pressure (308.2 K, Crystal): 0.00026 ± 2e-05 kPa
- vapor or sublimation pressure (309.1 K, Crystal): 0.00029 ± 3e-05 kPa
- vapor or sublimation pressure (309.3 K, Crystal): 0.0003 ± 3e-05 kPa
- vapor or sublimation pressure (310.7 K, Crystal): 0.00034 ± 3e-05 kPa
- vapor or sublimation pressure (312.3 K, Crystal): 0.00042 ± 4e-05 kPa
- vapor or sublimation pressure (313 K, Crystal): 0.00045 ± 4e-05 kPa
- vapor or sublimation pressure (313.7 K, Crystal): 0.0005 ± 4e-05 kPa
- vapor or sublimation pressure (315 K, Crystal): 0.00054 ± 5e-05 kPa and 0.00055 ± 5e-05 kPa
- vapor or sublimation pressure (315.4 K, Crystal): 0.00061 ± 5e-05 kPa
- vapor or sublimation pressure (315.7 K, Crystal): 0.0006 ± 5e-05 kPa
- vapor or sublimation pressure (316 K, Crystal): 0.00065 ± 6e-05 kPa
- vapor or sublimation pressure (316.7 K, Crystal): 0.0007 ± 6e-05 kPa
- vapor or sublimation pressure (317.2 K, Crystal): 0.00075 ± 7e-05 kPa
- vapor or sublimation pressure (318 K, Crystal): 0.00083 ± 7e-05 kPa
- vapor or sublimation pressure (318.2 K, Crystal): 0.00086 ± 8e-05 kPa
- vapor or sublimation pressure (318.3 K, Crystal): 0.00085 ± 7e-05 kPa
- vapor or sublimation pressure (318.7 K, Crystal): 0.00085 ± 7e-05 kPa
- vapor or sublimation pressure (320.3 K, Crystal): 0.00111 ± 0.0001 kPa
- vapor or sublimation pressure (320.7 K, Crystal): 0.0011 ± 0.0001 kPa
- vapor or sublimation pressure (322.3 K, Crystal): 0.00138 ± 0.00012 kPa
- vapor or sublimation pressure (323.2 K, Crystal): 0.00153 ± 0.00013 kPa and 0.00143 ± 0.00013 kPa
- vapor or sublimation pressure (324.1 K, Crystal): 0.00169 ± 0.00015 kPa
- vapor or sublimation pressure (324.7 K, Crystal): 0.00164 ± 0.00014 kPa
- vapor or sublimation pressure (325.2 K, Crystal): 0.00186 ± 0.00016 kPa
- vapor or sublimation pressure (326.7 K, Crystal): 0.00203 ± 0.00018 kPa
- vapor or sublimation pressure (328.3 K, Liquid): 0.00245 ± 0.00021 kPa
- vapor or sublimation pressure (332.2 K, Liquid): 0.00343 ± 0.0003 kPa
- vapor or sublimation pressure (335.4 K, Liquid): 0.00438 ± 0.00038 kPa
- vapor or sublimation pressure (338.1 K, Liquid): 0.00522 ± 0.00046 kPa
- vapor or sublimation pressure (341.2 K, Liquid): 0.00684 ± 0.0006 kPa
- vapor or sublimation pressure (343.2 K, Liquid): 0.0081 ± 0.00071 kPa
- vapor or sublimation pressure (346.1 K, Liquid): 0.00963 ± 0.00084 kPa
- vapor or sublimation pressure (348.2 K, Liquid): 0.01174 ± 0.001 kPa
- vapor or sublimation pressure (353.1 K, Liquid): 0.01698 ± 0.0015 kPa
- vapor or sublimation pressure (357.2 K, Liquid): 0.02181 ± 0.0019 kPa
- vapor or sublimation pressure (358.2 K, Liquid): 0.02355 ± 0.0021 kPa
- vapor or sublimation pressure (360.2 K, Liquid): 0.02829 ± 0.0025 kPa
- vapor or sublimation pressure (363 K, Liquid): 0.0322 ± 0.0028 kPa
- vapor or sublimation pressure (363.1 K, Liquid): 0.03321 ± 0.0029 kPa
- vapor or sublimation pressure (366.1 K, Liquid): 0.04193 ± 0.0037 kPa
- vapor or sublimation pressure (368.1 K, Liquid): 0.04848 ± 0.0042 kPa
- vapor or sublimation pressure (368.3 K, Liquid): 0.04791 ± 0.0042 kPa
- vapor or sublimation pressure (371.9 K, Liquid): 0.06108 ± 0.0053 kPa
- vapor or sublimation pressure (373.1 K, Liquid): 0.06621 ± 0.0058 kPa
